Source: the supplement of paper PMC4862054

What was measured:
Test in all cases: normalised viability (% of control), CellTiter-Blue; higher = more viable cells (about 100 = DMSO control)
Conditions in all cases: incubation time: 72 h
[1] = system: MDA-MB-436
Procedure, shortened: (§1)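 Each value is normalised viability at a single listed concentration of the series. Breast cancer cell lines in 384-well plates were incubated 72 h with compound and read by CellTiter-Blue fluorescence at 560/590 nm, with vehicle set to 100 and a positive kill control to 0 on every plate.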

[2] = system: BT-549
Procedure, shortened: as §1

[3] = system: SK-BR-3
Procedure, shortened: as §1

[4] = system: MFM-223
Procedure, shortened: as §1

[5] = system: MDA-MB-468
Procedure, shortened: as §1

[6] = system: BT-474
Procedure, shortened: as §1

[7] = system: HCC1143
Procedure, shortened: as §1

[8] = system: DU-4475
Procedure, shortened: as §1

[9] = system: CAL-148
Procedure, shortened: as §1

[10] = system: HCC1937
Procedure, shortened: as §1

[11] = system: CAL-120
Procedure, shortened: as §1

[12] = system: HDQ-P1
Procedure, shortened: as §1

[13] = system: HCC1599
Procedure, shortened: as §1

[14] = system: CAL-85-1
Procedure, shortened: as §1

[15] = system: Hs578T
Procedure, shortened: as §1

[16] = system: MDA-MB-453
Procedure, shortened: as §1

SMILES | normalised viability ([1]; 100 nM) | normalised viability ([2]; 100 nM) | normalised viability ([3]; 100 nM) | normalised viability ([4]; 100 nM) | normalised viability ([5]; 100 nM) | normalised viability ([6]; 100 nM) | normalised viability ([7]; 100 nM) | normalised viability ([8]; 10 nM) | normalised viability ([9]; 10 nM) | normalised viability ([10]; 100 nM) | normalised viability ([11]; 100 nM) | normalised viability ([12]; 10 nM) | normalised viability ([13]; 100 nM) | normalised viability ([14]; 10 nM) | normalised viability ([15]; 100 nM) | normalised viability ([16]; 10 nM) | normalised viability ([1]; 10 nM) | normalised viability ([2]; 10 nM) | normalised viability ([3]; 10 nM) | normalised viability ([4]; 10 nM) | also measured
CCN(CC)CCOc1ccc(C(=C(Cl)c2ccccc2)c2ccccc2)cc1 [Clomifene] | 114% | 118% | 93.4% | 103% | 97.5% | 116% | 88.5% | 103% | 94% | 100% | 94.8% | 115% | 100% | 96.2% | 95.7% | 103% | – | – | – | – | –
C[C@@H]1C[C@H]2[C@@H]3CCC4=CC(=O)C=C[C@]4(C)[C@@]3(F)[C@@H](O)C[C@]2(C)[C@@]1(O)C(=O)CO [Dexamethasone] | 94.9% | 88.6% | 70.3% | 93.4% | 119% | 115% | 83.4% | 97.2% | 97.7% | 94% | 68.5% | 113% | 117% | 110% | 97.2% | 93.3% | – | – | – | – | –
CC(C)C(=O)Nc1ccc([N+](=O)[O-])c(C(F)(F)F)c1 [Flutamide] | 105% | 85.8% | 93.3% | 90% | 96.9% | 115% | 85.3% | 92.6% | 99.3% | 108% | 101% | 113% | 86.8% | 100% | 92% | 98.8% | – | – | – | – | –
COc1cc2c(Oc3ccc(NC(=O)C4(C(=O)Nc5ccc(F)cc5)CC4)cc3F)ccnc2cc1OCCCN1CCOCC1 [Foretinib] | – | – | – | – | – | – | – | – | – | – | – | – | – | – | – | – | 91.8% | 107% | 78.8% | 80% | normalised viability ([5]; 10 nM): 134%; normalised viability ([6]; 10 nM): 109%; normalised viability ([7]; 10 nM): 99.9%; normalised viability ([8]; 1 nM): 96.6%; normalised viability ([9]; 1 nM): 108%; normalised viability ([10]; 10 nM): 97.7%; normalised viability ([11]; 10 nM): 89%; normalised viability ([12]; 1 nM): 92.4%; normalised viability ([13]; 10 nM): 95.3%; normalised viability ([14]; 1 nM): 100%; normalised viability ([15]; 10 nM): 97.5%; normalised viability ([16]; 1 nM): 91.6%
NC(=O)NO [Hydroxyurea] | – | – | – | – | – | – | – | – | – | – | – | – | – | – | – | – | – | – | – | – | normalised viability ([1]; 1000 nM): 106%; normalised viability ([2]; 1000 nM): 103%; normalised viability ([3]; 1000 nM): 101%; normalised viability ([4]; 1000 nM): 96.9%; normalised viability ([5]; 1000 nM): 109%; normalised viability ([6]; 1000 nM): 115%; normalised viability ([7]; 1000 nM): 106%; normalised viability ([8]; 100 nM): 119%; normalised viability ([9]; 100 nM): 96.8%; normalised viability ([10]; 1000 nM): 91.4%; normalised viability ([11]; 1000 nM): 103%; normalised viability ([12]; 100 nM): 108%; normalised viability ([13]; 1000 nM): 117%; normalised viability ([14]; 100 nM): 100%; normalised viability ([15]; 1000 nM): 98.2%; normalised viability ([16]; 100 nM): 101%
O=NN(CCCl)C(=O)NC1CCCCC1 [Lomustine] | 102% | 114% | 97.5% | 89.5% | 101% | 111% | 93.2% | 109% | 93.9% | 87.3% | 97% | 113% | 101% | 93.8% | 94.6% | 95.5% | – | – | – | – | –
O=C(O)CC[C@H]1CC[C@@](c2cc(F)ccc2F)(S(=O)(=O)c2ccc(Cl)cc2)CC1 [MK-0752] | – | – | – | – | – | – | – | – | – | – | – | – | – | – | – | – | 103% | 104% | 93.3% | 97.1% | normalised viability ([5]; 10 nM): 97.6%; normalised viability ([6]; 10 nM): 114%; normalised viability ([7]; 10 nM): 98%; normalised viability ([8]; 1 nM): 105%; normalised viability ([9]; 1 nM): 107%; normalised viability ([10]; 10 nM): 88.5%; normalised viability ([11]; 10 nM): 95.1%; normalised viability ([12]; 1 nM): 96.2%; normalised viability ([13]; 10 nM): 106%; normalised viability ([14]; 1 nM): 96%; normalised viability ([15]; 10 nM): 88.6%; normalised viability ([16]; 1 nM): 111%
NC1(c2ccc(-c3nc4ccn5c(=O)[nH]nc5c4cc3-c3ccccc3)cc2)CCC1 [MK-2206] | – | – | – | – | – | – | – | – | – | – | – | – | – | – | – | – | 107% | 107% | 79% | 105% | normalised viability ([5]; 10 nM): 109%; normalised viability ([6]; 10 nM): 112%; normalised viability ([7]; 10 nM): 121%; normalised viability ([8]; 1 nM): 107%; normalised viability ([9]; 1 nM): 105%; normalised viability ([10]; 10 nM): 80.7%; normalised viability ([11]; 10 nM): 106%; normalised viability ([12]; 1 nM): 103%; normalised viability ([13]; 10 nM): 97.4%; normalised viability ([14]; 1 nM): 92.2%; normalised viability ([15]; 10 nM): 98.5%; normalised viability ([16]; 1 nM): 117%
NC(=O)c1cccc2cn(-c3ccc([C@@H]4CCCNC4)cc3)nc12 [MK-4827] | 95.1% | 97.1% | 78% | 90.6% | 95% | 104% | 87.2% | 90.9% | 98.5% | 72.9% | 87.3% | 105% | 93.8% | 101% | 92.1% | 91.1% | – | – | – | – | –
N[C@@H](Cc1ccc(N(CCCl)CCCl)cc1)C(=O)O [Melphalan] | – | – | – | – | – | – | – | – | – | – | – | – | – | – | – | – | – | – | – | – | normalised viability ([1]; 9.9 nM): 87.2%; normalised viability ([2]; 9.9 nM): 110%; normalised viability ([3]; 9.9 nM): 86.9%; normalised viability ([4]; 9.9 nM): 89.9%; normalised viability ([5]; 9.9 nM): 108%; normalised viability ([6]; 9.9 nM): 99.3%; normalised viability ([7]; 9.9 nM): 74.2%; normalised viability ([8]; 0.99 nM): 105%; normalised viability ([9]; 0.99 nM): 92.4%; normalised viability ([10]; 9.9 nM): 102%; normalised viability ([11]; 9.9 nM): 73.6%; normalised viability ([12]; 0.99 nM): 97.6%; normalised viability ([13]; 9.9 nM): 96.1%; normalised viability ([14]; 0.99 nM): 87.5%; normalised viability ([15]; 9.9 nM): 75.8%; normalised viability ([16]; 0.99 nM): 108%
